Legend:
Experiment in all cases: Greenhouse post-emergence weed control, percent injury vs untreated control
Format in all cases: in vivo
Avena fatua (AVEFA) = settings: 480 h, 20 DAT, 1% MSO
[1] = test system: Amaranthus tuberculatus (AMATU); settings: 480 h, 20 DAT
Hordeum vulgare (HORVS) = settings: 480 h, 20 DAT
[2] = test system: Amaranthus Palmeri (AMAPA); settings: 480 h, 20 DAT
[3] = test system: Abutilon theophrasti (ABUTH); settings: 480 h, 20 DAT
[4] = 50 g ai/ha, read-out: Solo Glufosinate % activity
[5] = 200 g ai/ha, read-out: Solo Glufosinate % activity
[6] = 0.9 g ai/ha, read-out: Solo epyrifenacil % activity

CP(=O)(O)CCC(N)C(=O)O (racemic) [Glufosinate, (2RS)-2-amino-4-[hydroxy(methyl)phosphinoyl]butyric acid]
inhibition at 50 g/ha (Avena fatua (AVEFA); [4]): 10% | inhibition at 50 g/ha [1, 4]: 10% | inhibition at 100 g/ha ([1]; 100 g ai/ha, read-out: Solo Glufosinate % activity): 10% | inhibition at 200 g/ha [1, 5]: 70% | inhibition at 200 g/ha (Hordeum vulgare (HORVS); [5]): 25% | inhibition at 200 g/ha ([2]; 200 g ai/ha, Table 5, read-out: Solo Glufosinate % activity): 75% | inhibition at 200 g/ha [3, 5]: 10%

CCOC(=O)COc1ncccc1Oc1cc(-n2c(=O)cc(C(F)(F)F)n(C)c2=O)c(F)cc1Cl [epyrifenacil, Acetic acid, 2-[[3-[2-chloro-5-[3,6-dihydro-3-methyl-2,6-dioxo-4-(trifluoromethyl)-1(2H)-pyrimidinyl]-4-fluorophenoxy]-2-pyridinyl]oxy]-, ethyl ester]
inhibition at 0.9 g/ha (Avena fatua (AVEFA); [6]): 15% | inhibition at 0.9 g/ha ([1]; 0.9 g ai/ha, Table 2, read-out: Solo epyrifenacil % activity): 75% | inhibition at 0.9 g/ha (Hordeum vulgare (HORVS); [6]): 10% | inhibition at 0.3 g/ha ([2]; 0.3 g ai/ha, read-out: Solo epyrifenacil % activity): 15% | inhibition at 0.9 g/ha [2, 6]: 20% | inhibition at 0.1 g/ha ([3]; 0.1 g ai/ha, read-out: Solo epyrifenacil % activity): 25%

From patent US12568968B2, “Herbicide combinations comprising glufosinate and epyrifencacil” (BASF SE, priority 2020, dated 2026)
